Laboratory results published in US20250282736A1, “SMALL MOLECULE MODULATORS OF HUMAN PREGNANE X RECEPTOR” (ST. JUDE CHILDREN'S RESEARCH HOSPITAL, priority 2022, published 2025).
Where two headings read alike, the source gives them in different places.

Experiments:
hPXR [1] = target: T1, hPXR (Homo sapiens (Human), UniProt O75469); assay: hPXR binding assay; conditions: for inhibition at 10 µM: read-out: Binding (% inhibition at 10 μM)
hPXR [2] = target: T1, hPXR; assay: cell-based hPXR agonistic assay; conditions: for Agonist (% activation at 10 μM): rifampicin at 10 μM as 100% activation, DMSO (0.3%) as 0%
hPXR [3] = target: T1, hPXR; assay: cell-based hPXR antagonistic assay; conditions: for inhibition at 10 µM: read-out: Antagonist (% inhibition at 10 μM); for Antagonist (% inhibition at 10 μM): SPA70 at 10 μM with rifampicin (5 μM) as 100% inhibition, rifampicin alone (5 μM) as 0%
hPXR [4] = target: T1, hPXR; assay: cell-based hPXR inverse agonistic assay; conditions: for inhibition at 10 µM: read-out: Inverse agonist (% inhibition at 10 μM)
[5] = read-out: Binding (IC50/μM), hPXR binding assay
[6] = read-out: Agonist (EC50/μM), cell-based hPXR agonistic assay
[7] = read-out: Antagonist (IC50/μM), cell-based hPXR antagonistic assay with rifampicin (5 μM)
[8] = read-out: Inverse agonist (IC50/μM), cell-based hPXR inverse agonistic assay

T1 sequence (O75469 whole entry): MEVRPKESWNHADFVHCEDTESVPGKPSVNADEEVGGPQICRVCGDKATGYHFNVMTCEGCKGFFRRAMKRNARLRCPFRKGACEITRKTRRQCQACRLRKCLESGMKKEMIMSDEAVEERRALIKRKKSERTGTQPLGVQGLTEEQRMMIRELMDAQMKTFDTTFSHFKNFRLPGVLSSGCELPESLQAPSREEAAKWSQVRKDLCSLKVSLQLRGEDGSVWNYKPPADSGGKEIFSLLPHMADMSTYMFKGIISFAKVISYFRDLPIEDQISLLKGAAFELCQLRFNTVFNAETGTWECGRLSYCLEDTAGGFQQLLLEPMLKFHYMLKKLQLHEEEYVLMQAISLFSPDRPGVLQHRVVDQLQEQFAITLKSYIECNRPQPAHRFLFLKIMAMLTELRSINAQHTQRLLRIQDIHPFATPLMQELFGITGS

| IC50 (hPXR [1]) | EC50 (hPXR [2]) | IC50 (hPXR [3]) | IC50 (hPXR [4]) | inhibition at 10 µM (hPXR [1]) | IC50 (hPXR [1]; [5]) | inhibition at 10 µM (hPXR [4]) | inhibition at 10 µM (hPXR [3]) | Agonist (% activation at 10 μM) (hPXR [2]) | EC50 (hPXR [2]; [6]) | Antagonist (% inhibition at 10 μM) (hPXR [3]) | IC50 (hPXR [3]; [7]) | IC50 (hPXR [4]; [8]) | SMILES |
| --- | --- | --- | --- | --- | --- | --- | --- | --- | --- | --- | --- | --- | --- |
|  | > 30 µM | > 30 µM | > 30 µM | 84% | 2.33 ± 0.43 µM |  |  |  |  |  |  |  | COc1ccc(OC)c(-n2nnc(C(=O)Nc3cc(C(C)(C)C)ccc3O)c2C)c1 [B2, N-(5-(tert-butyl)-2-hydroxyphenyl)-1-(2,5-dimethoxyphenyl)-5-methyl-1H-1,2,3-triazole-4-carboxamide] |
| > 30 µM | 0.59 µM | > 30 µM | > 30 µM |  |  |  |  | (55 ± 6)% |  |  |  |  | COc1ccc(OC)c(-n2nnc(C(=O)Nc3cc(C(C)(C)C)ccc3OC(=O)c3nnn(-c4cc(OC)ccc4OC)c3C)c2C)c1 [B3, 4-(tert-butyl)-2-(1-(2,5-dimethoxyphenyl)-5-methyl-1H-1,2,3-triazole-4-carboxamido)phenyl 1-(2,5-dimethoxyphenyl)-5-methyl-1H-1,2,3-triazole-4-carboxylate] |
|  | > 30 µM | 1.92 ± 0.23 µM | 0.43 ± 0.14 µM | 62% | 2.34 ± 0.57 µM | 95% | 102% |  |  |  |  |  | COc1ccc(OC)c(-n2nnc(C(=O)Nc3cc(C(C)(C)C)ccc3OCCOCCOCCOCCO)c2C)c1 [B10] |
|  | > 30 µM | 0.049 ± 0.01 µM | 0.0074 µM | 88% | 0.021 ± 0.005 µM | 119% | 107% |  |  |  |  |  | COc1ccc(OC)c(-n2nnc(C(=O)Nc3cc(C(C)(C)C)ccc3OC(C)C)c2C)c1 [B12] |
|  | > 30 µM | 2.48 µM | 0.43 ± 0.14 µM | 68% | 0.5 ± 0.12 µM | 95% | 86% |  |  |  |  |  | COc1ccc(OC)c(-n2nnc(C(=O)Nc3cc(C(C)(C)C)ccc3OCCCCCCCCI)c2C)c1 [B19] |
| > 30 µM | > 30 µM | > 30 µM | > 30 µM |  |  |  |  |  |  |  |  |  | COc1ccc(OC)c(-n2nnc(C(=O)Nc3cc(C(C)(C)C)ccc3OCCCCCCCCOc3ccc(C(C)(C)C)cc3NC(=O)c3nnn(-c4cc(OC)ccc4OC)c3C)c2C)c1 [B20] |
| > 30 µM | > 30 µM | > 30 µM | 16.7 ± 3.34 µM |  |  | 45% |  |  |  |  |  |  | COc1ccc(OC)c(-n2nnc(C(=O)Nc3cc(C(C)(C)C)ccc3OCCOCCOCCOCCOCCOCCOc3ccc(C(C)(C)C)cc3NC(=O)c3nnn(-c4cc(OC)ccc4OC)c3C)c2C)c1 [B23, N,N′-((3,6,9,12,15-pentaoxaheptadecane-1,17-diylbis(oxy))bis(3-(tert-butyl)-6,1-phenylene))bis(1-(2,5-dimethoxyphenyl)-5-methyl-1H-1,2,3-triazole-4-carboxamide)] |
|  | 0.27 µM | > 30 µM | > 30 µM | 74% | 0.5 ± 0.2 µM |  |  | (77 ± 1)% |  |  |  |  | COc1ccc(OC)c(-n2nnc(C(=O)Nc3cc(C(C)(C)C)ccc3OCC(=O)OC(C)(C)C)c2C)c1 [B24, tert-butyl 2-(4-(tert-butyl)-2-(1-(2,5-dimethoxyphenyl)-5-methyl-1H-1,2,3-triazole-4-carboxamido)phenoxy)acetate] |
|  | > 30 µM | 0.18 µM | 0.026 µM | 85% | 0.0177 ± 0.0031 µM | 100% | 99% |  |  |  |  |  | COc1ccc(OC)c(-n2nnc(C(=O)Nc3cc(C(C)(C)C)ccc3OCC(C)(C)C)c2C)c1 [B29] |
|  | > 30 µM | 0.015 µM | 0.0016 µM | 91% | 0.0075 ± 0.0011 µM | 111% | 105% |  |  |  |  |  | CCC(CC)Oc1ccc(C(C)(C)C)cc1NC(=O)c1nnn(-c2cc(OC)ccc2OC)c1C [B31] |
|  | > 30 µM | 0.26 µM |  | 81% | 0.018 µM | 89% | 96% |  |  |  |  |  | COc1ccc(OC)c(-n2nnc(C(=O)Nc3cc(C(C)(C)C)ccc3OCC(C)C)c2C)c1 [B32] |
|  | > 30 µM | 0.012 ± 0.003 µM | 0.0023 ± 0.0008 µM | 92% | 0.019 µM | 147% | 108% |  |  |  |  |  | CCCC(CC)Oc1ccc(C(C)(C)C)cc1NC(=O)c1nnn(-c2cc(OC)ccc2OC)c1C (centres unmarked) [B34, N-(5-(Tert-Butyl)-2-(Hexan-3-yloxy)Phenyl)-1-(2,5-Dimethoxyphenyl)-5-Methyl-1H-1,2,3-Triazole-4-Carboxamide] |
| > 30 µM |  | > 30 µM | > 30 µM |  |  |  |  | (25 ± 7)% | 0.9 ± 0.22 µM |  |  |  | COc1ccc(OC)c(-n2nnc(C(=O)Nc3cc(C(C)(C)C)ccc3N)c2C)c1 [B37] |
|  |  | > 30 µM | > 30 µM | 60% | 3.22 ± 2.29 µM |  |  | (60 ± 13)% | 0.99 ± 0.22 µM |  |  |  | COc1ccc(OC)c(-n2nnc(C(=O)Nc3cc(C(C)(C)C)ccc3NC(C)=O)c2C)c1 [B38] |
|  | 1.96 ± 0.19 µM | > 30 µM | > 30 µM | 65% | 1.81 ± 0.52 µM |  |  | (50 ± 14)% |  |  |  |  | COc1ccc(OC)c(-n2nnc(C(=O)Nc3ccc(NC(C)=O)c(C(C)(C)C)c3)c2C)c1 [C1, N-(4-acetamido-3-(tert-butyl)phenyl)-1-(2,5-dimethoxyphenyl)-5-methyl-1H-1,2,3-triazole-4-carboxamide] |
|  |  | > 30 µM | > 30 µM | 86% | 4.12 ± 1.4 µM |  |  | (33 ± 7)% | 0.28 µM |  |  |  | COc1ccc(OC)c(-n2nnc(C(=O)Nc3ccc(N)c(C(C)(C)C)c3)c2C)c1 [C2, N-(4-amino-3-(tert-butyl)phenyl)-1-(2,5-dimethoxyphenyl)-5-methyl-1H-1,2,3-triazole-4-carboxamide] |
|  | > 30 µM |  |  |  | 0.33 ± 0.11 µM |  |  |  |  | (109 ± 6)% | 0.41 ± 0.13 µM | 0.12 µM | CNc1cc(NC(=O)c2nnn(-c3cc(OC)ccc3OC)c2C)cc(C(C)(C)C)c1 [D2, N-(3-(tert-butyl)-5-(methylamino)phenyl)-1-(2,5-dimethoxyphenyl)-5-methyl-1H-1,2,3-triazole-4-carboxamide] |
|  | > 30 µM |  |  |  | 0.27 ± 0.04 µM |  |  |  |  | (110 ± 3)% | 0.34 µM | 0.11 µM | COc1ccc(OC)c(-n2nnc(C(=O)Nc3cc(N(C)C)cc(C(C)(C)C)c3)c2C)c1 [D3, N-(3-(tert-butyl)-5-(dimethylamino)phenyl)-1-(2,5-dimethoxyphenyl)-5-methyl-1H-1,2,3-triazole-4-carboxamide] |
|  | > 30 µM |  |  |  | 0.45 ± 0.12 µM |  |  |  |  |  | 0.13 µM | 0.039 ± 0.012 µM | CCCCNc1cc(NC(=O)c2nnn(-c3cc(OC)ccc3OC)c2C)cc(C(C)(C)C)c1 [D4, N-(3-(tert-butyl)-5-(butylamino)phenyl)-1-(2,5-dimethoxyphenyl)-5-methyl-1H-1,2,3-triazole-4-carboxamide] |

More lines, now with the values behind:

| SMILES | IC50 (hPXR [1]) | EC50 (hPXR [2]) | IC50 (hPXR [3]) | IC50 (hPXR [4]) | inhibition at 10 µM (hPXR [1]) | IC50 (hPXR [1]; [5]) | inhibition at 10 µM (hPXR [4]) | inhibition at 10 µM (hPXR [3]) | Agonist (% activation at 10 μM) (hPXR [2]) | EC50 (hPXR [2]; [6]) | Antagonist (% inhibition at 10 μM) (hPXR [3]) | IC50 (hPXR [3]; [7]) | IC50 (hPXR [4]; [8]) |
| --- | --- | --- | --- | --- | --- | --- | --- | --- | --- | --- | --- | --- | --- |
| COc1ccc(OC)c(-n2nnc(C(=O)Nc3cccc(N4CCN(C)CC4)c3)c2C)c1 [A15] | > 30 µM | > 30 µM | > 30 µM | > 30 µM |  |  |  |  |  |  |  |  |  |
| COc1ccc(OC)c(-n2nnc(C(=O)Nc3ccc(N4CCN(C)CC4)cc3)c2C)c1 [A16] | > 30 µM | > 30 µM | > 30 µM | > 30 µM |  |  |  |  |  |  |  |  |  |
| COc1ccc(OC)c(-n2nnc(C(=O)Nc3ccc(CN4CCN(C)CC4)cc3)c2C)c1 [A17] | > 30 µM | > 30 µM | > 30 µM | > 30 µM |  |  |  |  |  |  |  |  |  |
| CCOc1cc(NC(=O)c2nnn(-c3cc(OC)ccc3OC)c2C)nc(OCC)n1 [A18] |  | > 30 µM | > 30 µM | > 30 µM | 36% | 12.6 ± 3.09 µM |  |  |  |  |  |  |  |
| COc1ccc(OC)c(-n2nnc(C(=O)Nc3cc(-n4cnc(C)c4)cc(C(F)(F)F)c3)c2C)c1 [A20] | > 30 µM | > 30 µM | > 30 µM | > 30 µM |  |  |  |  |  |  |  |  |  |
| COc1ccc(OC)c(-n2nnc(C(=O)Nc3ccc(CN4CCN(C)CC4)c(C(F)(F)F)c3)c2C)c1 [A21] | > 30 µM | > 30 µM | > 30 µM | > 30 µM |  |  |  |  |  |  |  |  |  |
| COC(=O)c1ccc(NC(=O)c2nnn(-c3cc(OC)ccc3OC)c2C)cc1N1CCCC1 [A22] | > 30 µM | > 30 µM | > 30 µM | 10.6 ± 8.63 µM |  |  | 129% |  |  |  |  |  |  |
| COc1ccc(OC)c(-n2nnc(C(=O)Nc3ccc4c(c3)Nc3ccccc3CC4)c2C)c1 [A23] | > 30 µM | > 30 µM | 13.4 ± 0.12 µM | > 30 µM |  |  |  | 23% |  |  |  |  |  |
| COc1ccc(OC)c(-n2nnc(C(=O)Nc3cc(C)ccc3OC)c2C)c1 [A25] |  | > 30 µM | 12 ± 2 µM | 20.6 ± 0.42 µM | 73% | 1.36 ± 0.23 µM | 53% | 70% |  |  |  |  |  |
| COc1ccc(OC)c(-n2nnc(C(=O)Nc3cc(C(C)(C)C)ccc3OCCCCN3CCN(C)CC3)c2C)c1 [B22, N-(5-(tert-butyl)-2-(4-(4-methylpiperazin-1-yl)butoxy)phenyl)-1-(2,5-dimethoxyphenyl)-5-methyl-1H-1,2,3-triazole-4-carboxamide] | > 30 µM | > 30 µM | 6.09 ± 0.85 µM | 3.08 ± 0.55 µM |  |  | 168% | 114% |  |  |  |  |  |
